From patent US20110020460A1, “GPR 119 MODULATORS” (Pfizer Inc., priority 2009, published 2011)
“And” between values parts separate entries of the source, which are not always exact repeats. Equal values may be shown once. Read-outs that look alike come from different tables or passages of the source.

How the values were obtained:
[1] = biological target: T1, human GPR119 (Homo sapiens, UniProt Q8TDV5); test: GPR119 radioligand binding assay ([3H]-Compound A or [3H]-Compound B, HEK 293FT membranes); conditions: Ki from IC50 by Cheng-Prusoff, one value per run
T1 construct: host or cells: HEK293-CRE-beta-lactamase
T1 sequence (Q8TDV5 1-335): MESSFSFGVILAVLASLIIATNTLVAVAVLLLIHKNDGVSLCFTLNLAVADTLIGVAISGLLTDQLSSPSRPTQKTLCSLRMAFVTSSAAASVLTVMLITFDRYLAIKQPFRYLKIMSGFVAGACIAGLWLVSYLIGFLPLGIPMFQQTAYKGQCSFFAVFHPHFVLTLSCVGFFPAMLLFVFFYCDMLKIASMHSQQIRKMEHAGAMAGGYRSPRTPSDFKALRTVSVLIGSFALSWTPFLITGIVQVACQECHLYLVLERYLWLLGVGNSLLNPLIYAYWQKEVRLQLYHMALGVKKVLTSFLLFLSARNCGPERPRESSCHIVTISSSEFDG
Method: Cells were harvested via centrifugation (3,000×g, 10 minutes), washed once on DPBS (minus Ca++/Mg++), resuspended in 0.25M sucrose, 25 mM HEPES, 0.5 mM EDTA, pH 7.4 and frozen at −80 degrees Celsius.
The frozen cells were thawed on ice and centrifuged at 700×g (1400 rpm) for 10 minutes at 4 degrees Celsius. The cell pellet was resuspended in 20 mL phosphate-buffered saline, and centrifuged at 1400 rpm for 10 minutes. […] Cells were then lysed with 15 gentle strokes of a tight-fitting glass Dounce homogenizer. The homogenate was centrifuged at 1000×g (2200 rpm) for 10 minutes at 4 degrees Celsius. The supernatant was transferred into fresh centrifuge tubes on ice. The cell pellet was resuspended in homogenization buffer, and centrifuged again at 1000×g (2200 rpm) for 10 minutes at 4 degrees Celsius after which the supernatant was removed and the pellet resuspended in homogenization buffer. […] The solution was then centrifuged at 25,000×g (15000 rpm) for 20 minutes at 4 degrees Celsius, the supernatant was discarded, and the pellet was resuspended in fresh homogenization buffer (minus Benzonase and MgCl2). After repeating the 25,000×g centrifugation step, the final membrane pellet was resuspended in homogenization buffer and frozen at −80 degrees Celsius.
2 microL of each dilution was added to appropriate wells of a 96-well plate (each concentration in triplicate).
Membranes expressing GPR119 were thawed and diluted to a final concentration of 20 μg/100 microL per well in Binding Buffer, and 100 microL of diluted membranes were added to each well of 96-well plate.
The plate was incubated for 60 minutes w/shaking at room temperature (approximately 25 degrees Celsius). […] Filters were then washed six times using washing buffer (50 mM Tris-HCl, pH 7.5 kept at 4 degrees Celsius). The filter plates were then air-dyed at room temperature overnight.
IC50 determinations were made from competition curves, analyzed with a proprietary curve fitting program (SIGHTS) and a 4-parameter logistic dose response equation. Ki values were calculated from IC50 values, using the Cheng-Prusoff equation.

[2] = biological target: T1, human GPR119; test: beta-lactamase reporter functional assay (hGPR119 HEK293-CRE beta-lactamase cells); format: cell-based; conditions: one value per run; for EC50: hGPR119 HEK293-CRE beta-lactamase cells, read-out: Human B-lactamase Functional EC50; for Emax / Intrinsic Activity* (B-lactamase): percent of maximal activity relative to standard GPR119 agonist (WO2005121121) at 10 microM; for Emax: read-out: Intrinsic Activity* (B-lactamase)
Method: The assay for GPR119 agonists utilizes a cell-based (hGPR119 HEK293-CRE beta-lactamase) reporter construct where agonist activation of human GPR119 is coupled to beta-lactamase production via a cyclic AMP response element (CRE). GPR119 activity is then measured utilizing a FRET-enabled beta-lactamase substrate, CCF4-AM (Live Blazer FRET-B/G Loading kit, Invitrogen cat #K1027). […] After 4 hours the plating medium was removed and replaced with 40 microL of assay medium (Assay medium is plating medium without potassium clavulanate and HIFBS). Varying concentrations of each compound to be tested was then added in a volume of 10 microL (final DMSO≦0.5%) and the cells were incubated for 16 hours at 37 degrees Celsius in a humidified environment containing 5% carbon dioxide. Plates were removed from the incubator and allowed to equilibrate to room temperature for approximately 15 minutes. 10 microL of 6×CCF4/AM working dye solution (prepared according to instructions in the Live Blazer FRET-B/G Loading kit, Invitrogen cat #K1027) was added per well and incubated at room temperature for 2 hours in the dark. Fluorescence was measured on an EnVision fluorimetric plate reader, excitation 405 nm, emission 460 nm/535 nm. EC50 determinations were made from agonist-response curves analyzed with a curve fitting program using a 4-parameter logistic dose-response equation.

[3] = biological target: T1, human GPR119; test: cAMP HTRF functional assay (hGPR119 HEK-CRE beta-lactamase cells); format: cell-based; conditions: for Emax: read-out: Intrinsic Activity* (cAMP)
Method: GPR119 agonist activity was also determined with a cell-based assay utilizing an HTRF (Homogeneous Time-Resolved Fluorescence) cAMP detection kit (cAMP dynamic 2 Assay Kit; Cis Bio cat #62AM4PEC) that measures cAMP levels in the cell. The method is a competitive immunoassay between native cAMP produced by the cells and the cAMP labeled with the dye d2. The tracer binding is visualized by a Mab anti-cAMP labeled with Cryptate. The specific signal (i.e. energy transfer) is inversely proportional to the concentration of cAMP in either standard or sample.
Following 30 minutes incubation at room temperature, 5 microL of labeled d2 cAMP and 5 microL of anti-cAMP antibody (both diluted 1:20 in cell lysis buffer; as described in the manufacturers assay protocol) were added to each well of the assay plate. […] Raw data were converted to nM cAMP by interpolation from a cAMP standard curve (as described in the manufacturer's assay protocol) and EC50 determinations were made from an agonist-response curves analyzed with a curve fitting program using a 4-parameter logistic dose response equation.

[4] = hGPR119 HEK-CRE beta-lactamase cells, HTRF cAMP, one value per run
[5] = percent of maximal activity relative to standard GPR119 agonist (WO2005121121) at 10 μM, one value per run
[6] = **curve was extrapolated to 100% to calculate an EC50

SMILES | Ki ([1]; read-out: Human Binding Ki) | EC50 [2] | Emax [2] | EC50 [3, 4] | Intrinsic Activity* (cAMP) [3, 5] | Emax [3, 5] | Intrinsic Activity* (B-lactamase) [2] | Ki ([1]; Human Binding Ki) | EC50 [3, 6] | Emax [3, 6]
CC(C)OC(=O)N1CCC(n2ncc(COc3ccc(F)cc3F)c2C#N)CC1 [Example 11, Isopropyl 4-{5-cyano-4-[(2,4-difluorophenoxy)methyl]-1H-pyrazol-1-yl}piperidine-1-carboxylate] | 530 nM | 782 nM | 98% | 163 nM and 98 nM and 154 nM | 74% and 62% | 61% |  |  |  | 
CC(C)OC(=O)N1CCC(n2ncc(COc3ccc(S(=O)(=O)CCO)cc3F)c2C#N)CC1 [Example 1, Isopropyl 4-[5-cyano-4-({2-fluoro-4-[(2-hydroxyethyl)sulfonyl]-phenoxy}methyl)-1H-pyrazol-1-yl]piperidine-1-carboxylate] | 47 nM and 45 nM | 68 nM and 122 nM | 100% | 217 nM and 180 nM | 37% | 56% | 101% |  |  | 
Cc1ncccc1NCc1cnn(C2CCN(C(=O)OC(C)C)CC2)c1C#N [Example 6, Isopropyl 4-(5-cyano-4-{[(2-methylpyridin-3-yl)amino]methyl}-1H-pyrazol-1-yl)piperidine-1-carboxylate] | > 6100 nM | 6 nM | 31% | > 10000 nM |  | 17% |  |  |  | 
COP(=O)(OC)c1ccc(OCc2cnn(C3CCN(C(=O)OC(C)C)CC3)c2C#N)c(F)c1 [Example 7, Isopropyl 4-(5-cyano-4-{[4-(dimethoxyphosphoryl)-2-fluorophenoxy]methyl}-1H-pyrazol-1-yl)piperidine-1-carboxylate] |  | 622 nM | 98% | 225 nM and 256 nM and 169 nM | 74% and 85% | 80% |  | 293 nM and 283 nM |  | 
CC(C)OC(=O)N1CCC(n2ncc(C(C)Oc3ccc(S(C)(=O)=O)cc3F)c2C#N)CC1 (centres unmarked) [Example 27, Isopropyl 4-(5-cyano-4-{1-[2-fluoro-4-(methylsulfonyl)phenoxy]ethyl}-1H-pyrazol-1-yl)piperidine-1-carboxylate] | 1640 nM and 528 nM | 1870 nM and 3400 nM | 102% | 394 nM |  | 27% | 100% |  |  | 
Cn1nnnc1-c1ccc(OCc2cnn(C3CCN(C(=O)OC4(C)CC4)CC3)c2C#N)cc1 [Example 25, 1-Methylcyclopropyl 4-(5-cyano-4-{[4-(1-methyl-1H-tetrazol-5-yl)phenoxy]methyl}-1H-pyrazol-1-yl)piperidine-1-carboxylate] | 418 nM |  |  | 57 nM and 111 nM | 88% and 114% |  |  |  |  | 
Cc1nc(-n2cncn2)ccc1NCc1cnn(C2CCN(C(=O)OC(C)C)CC2)c1C#N [Example 36, Isopropyl 4-[5-cyano-4-({[2-methyl-6-(1H-1,2,4-triazol-1-yl)pyridin-3-yl]amino}methyl)-1H-pyrazol-1-yl]piperidine-1-carboxylate] | 521 nM and 1450 nM | 848 nM | 100% | 281 nM and 256 nM | 51% and 76% |  |  |  |  | 
CC(C)OC(=O)N1CCC(n2ncc(COc3ccc(S(C)(=O)=O)cc3F)c2C#N)CC1 [Example 2, Isopropyl 4-(5-cyano-4-{[2-fluoro-4-(methylsulfonyl)phenoxy]methyl}-1H-pyrazol-1-yl)piperidine-1-carboxylate] | 10 nM and 19 nM and 13 nM and 40 nM | 9 nM and 17 nM | 100% | 29 nM and 27 nM | 63% | 60% | 93% and 84% |  |  | 
CC(C)OC(=O)N1CCC(n2ncc(COc3ccc(-c4nnn(C)n4)cc3F)c2C#N)CC1 [Example 21, Isopropyl 4-(5-cyano-4-((2-fluoro-4-(2-methyl-2H-tetrazol-5-yl)phenoxy)methyl)-1H-pyrazol-1-yl)piperidine-1-carboxylate] | 58 nM and 128 nM | 688 nM and 201 nM | 100% | 44 nM and 32 nM and 57 nM | 31% and 34% | 33% | 96% |  |  | 
CC(C)OC(=O)N1CCC(n2ncc(COc3ccc(-c4nnnn4CCO)cc3F)c2C#N)CC1 [Example 23, Isopropyl 4-(5-cyano-4-((2-fluoro-4-(1-(2-hydroxyethyl)-1H-tetrazol-5-yl)phenoxy)methyl)-1H-pyrazol-1-yl)piperidine-1-carboxylate] | 150 nM |  |  |  |  |  |  |  | 1640 nM and 1470 nM | 100%
CC(C)OC(=O)N1CCC(n2ncc(COc3ccc(-c4nnn(CCO)n4)cc3F)c2C#N)CC1 [Example 22, Isopropyl 4-(5-cyano-4-((2-fluoro-4-(2-(2-hydroxyethyl)-2H-tetrazol-5-yl)phenoxy)methyl)-1H-pyrazol-1-yl)piperidine-1-carboxylate] | 159 nM |  |  | 147 nM and 161 nM |  | 29% |  |  |  | 
CC(C)OC(=O)N1CCC(n2ncc(CCc3ccc(S(C)(=O)=O)cc3F)c2C#N)CC1 [Example 9, Isopropyl 4-(5-cyano-4-{2-[2-fluoro-4-(methylsulfonyl)phenyl]ethyl}-1H-pyrazol-1-yl)piperidine-1-carboxylate] | 35 nM and 42 nM | 56 nM and 89 nM | 98% |  |  |  | 93% |  |  | 
CC(C)OC(=O)N1CCC(n2ncc(COc3ccc(-n4cccn4)cc3)c2C#N)CC1 [Example 18, Isopropyl 4-(4-((4-(1H-pyrazol-1-yl)phenoxy)methyl)-5-cyano-1H-pyrazol-1-yl)piperidine-1-carboxylate] | 153 nM |  |  | 67 nM and 69 nM | 75% | 80% |  |  |  | 
CC1(OC(=O)N2CCC(n3ncc(COc4ccc(C(N)=O)c(F)c4)c3C#N)CC2)CC1 [Example 26, 1-Methylcyclopropyl 4-(4-((4-carbamoyl-3-fluorophenoxy)methyl)-5-cyano-1H-pyrazol-1-yl)piperidine-1-carboxylate] |  |  |  | 254 nM |  | 62% |  |  |  | 
